Data on four molecules can be found in paper PMC5969508, “Stapled peptides as a new technology to investigate protein–protein interactions in human platelets” (Chemical Science, 2018).

The structures appear in SMILES notation.

The test system of data set [1] is human platelets. Nature of the data set: Peptide uptake in washed platelet suspension by flow cytometry. Conditions: for positive platelets (TAMRA fluorescence), peptide uptake: TAMRA-labelled model peptide 10 μM (1 mM DMSO stock), 37 °C in the dark, 3 h incubation, flow cytometry, mean ± SEM, at least three donors. In kind it is cell-based. Here is the method:
Washed platelet suspensions were incubated with peptides for varying periods of time and cellular uptake was quantified using flow cytometry. […] Only 34.9 ± 7.8% of platelets were fluorescent following 8 (poly-lysine) treatments after 3 hours. Changes in fluorescence were not observed with other peptides (Fig. 3A).
Fig. 3 A functionalised staple is required to induce peptide uptake into platelets. (A) Platelets were incubated with TAMRA labelled model peptides (10 μM final concentration) for 1 h (white), 2 h (grey) and 3 h incubation (black) and the percentage positive for TAMRA fluorescence was quantified using flow cytometry. (B) Peptides showing high uptake within the first hour were analysed during first 5 min following treatment. Changes in platelet-associated fluorescence were recorded in real time using flow cytometry. Unlabelled platelets were recorded for 30 s prior to addition of the given peptide. (C) Platelets were incubated with 10 μM of TAMRA-model peptides for 1 h prior to imaging by confocal microscopy. ^‡ […]
In order to explore the rate of peptide uptake, changes in platelet fluorescence were monitored during the first 5 minutes (Fig. 3B) and after 15, 30, 45 and 60 minutes following treatment with peptides (Fig. SI_1, ESI ^†). More than 50% of platelets became fluorescent during the first 15 minutes of incubation with peptides 13–16, with a further increase after the first 45 minutes. Some 40–50% of platelets were fluorescent after 15 minutes following treatment with peptides 2, 5 or 8. No further increase was observed thereafter (Fig. SI_1, ESI ^†).
(§1) Ethical approval for this study was obtained from the Faculty Research Ethics Committee at Anglia Ruskin University, Cambridge, UK.
(§2) 1.1 Preparation of washed platelet suspension
Blood was collected into 11 mM sodium citrate and washed platelets were prepared as follows: Platelet-rich plasma (PRP) was obtained by centrifugation (240 g, 15 min). Prostaglandin E1 (PGE1, 2 µM) was added to prevent premature platelet activation, and the plasma was centrifuged at 640 g for 15 min. […]
Treated washed platelet suspensions (1x10^7/mL) were analysed by flow cytometry using a C6 Accuri Flow Cytometer (Beckton Dickinson, UK), in the presence or absence of Annexin-V-PE (BD Biosciences, UK), anti-PAC-1 (BD Biosciences), anti-CD62 (BD Pharmingen, UK), or anti-CD-63P (BD Pharmingen). […]
(§3) The washed platelet suspension was rested at 37 °C for 1 h before commencing the experiment. […] For real time measurments, the peptides were added to the 250 μL of washed platelet suspension after events were recorded for 1 minute and monitored for a further 4 min. […]
(In general: Flow cytometry measures light scatter and fluorescence of single cells or particles in a stream.)

Data set [2] relates to human platelets. Briefly: PS exposure (annexin-V binding) by flow cytometry. In kind it is cell-based. As to conditions: washed human platelets, 10 μM, 37 °C, time course up to 3 h, flow cytometry (Fig. 5A).
Experimental: Platelet activation markers (% positive platelets) were investigated following 1 h of peptide treatment. […] CD63 binding.
Human blood was collected from healthy volunteers, who had not taken medication for two weeks,
following informed consent in accordance with the Declaration of Helsinki. Blood was collected into 11 mM sodium citrate and washed platelets were prepared as follows: Platelet-rich plasma (PRP) was obtained by centrifugation (240 g, 15 min). Prostaglandin E1 (PGE1, 2 µM) was added to prevent premature platelet activation, and the plasma was centrifuged at 640 g for 15 min. […]
PS exposure was assessed after incubation of 50 µL of washed platelet suspensions at 37 °C in 445 µL of […]
under the protection from direct light and analysed by flow cytometry.
Platelet activation markers (PAC -1, CD62P and CD63 binding) were assessed after incubation of 3 µL of […]
antibody and the peptide (1.1 μL of 1 mM stock solution in DMSO) . The suspensions were analysed by […]
In data set [3] the test system is human platelets. Nature of the data set: Platelet activation markers (PAC-1, CD62P, CD63 binding) by flow cytometry. In kind it is cell-based. As to conditions: for platelet activation markers PAC-1, CD62P, CD63 (in words): washed human platelets, 10 μM, 1 h treatment, flow cytometry (Fig. 5B). The protocol:
Fig. 5 (A) Functionalised, stapled Bim BH3 peptides induce PS exposure in platelets. […] (B) Stapled Bim BH3 peptides, but not ABT737 nor 21, induce platelet activation. Platelet activation markers (% positive platelets) were investigated following 1 h of peptide treatment. [drawing 10] PAC-1, [drawing 11] CD62P and [drawing 12] CD63 binding. Statistical significance compared to 20: ****P < 0.0001, ***P between 0.0001 and 0.0005, **P between 0.0010 and 0.0050 ns = non-significant.
as §1, §2
Blood was collected into 11 mM sodium citrate and washed platelets were prepared as follows: Platelet-rich plasma (PRP) was obtained by centrifugation (240 g, 15 min). Prostaglandin E1 (PGE1, 2 µM) was added to prevent premature platelet activation, and the plasma was centrifuged at 640 g for 15 min. Platelets were suspended in calcium free Tyrode‘s buffer (CFT buffer, containing: 140 mM NaCl, 5 mM KCl, 10 mM N-2-hydroxyethylpiperazine-N‘-2-ethanesulfonic acid (HEPES), 5 mM Glucose, 0.42 mM NaH2PO4, 12 mM NaHCO3, titrated to pH 7.4 with NaOH) to a final concentration of 2x108 platelet/mL and rested at 37 °C for 1 h prior to experimentation.
Treated washed platelet suspensions (1x10^7/mL) were analysed by flow cytometry using a C6 Accuri Flow Cytometer (Beckton Dickinson, UK), in the presence or absence of Annexin-V-PE (BD Biosciences, UK), anti-PAC-1 (BD Biosciences), anti-CD62 (BD Pharmingen, UK), or anti-CD-63P (BD Pharmingen).
Peptides were used to a final concentration of 10 µM (1 mM DMSO stock solutions). At least 10,000 events were acquired per experiment. The entire platelet population was primarily gated by FSC. […]
as §3
The suspensions were analysed by […]

The target of the next data set is T1, Bcl-xL (Homo sapiens, UniProt Q07817).
T1 construct: made in house; host or cells: Escherichia coli BL21 Gold DE3
T1 sequence (Q07817 whole entry): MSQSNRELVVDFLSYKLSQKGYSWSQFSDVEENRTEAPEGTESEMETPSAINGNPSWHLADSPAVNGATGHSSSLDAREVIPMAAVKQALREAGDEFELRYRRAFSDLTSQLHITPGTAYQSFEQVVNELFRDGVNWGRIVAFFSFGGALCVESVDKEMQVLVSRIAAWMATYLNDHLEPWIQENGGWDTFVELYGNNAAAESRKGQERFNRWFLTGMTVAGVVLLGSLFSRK
Briefly: Surface plasmon resonance (SPR) direct binding to Bcl-xL. As to conditions: SPR Biacore T200, His-tagged Bcl-xL on Sensor chip NTA, 25 °C, 7-point 2-fold dilution 33.3 nM to 1.03 nM, steady state fit, Table S1. Background: SPR reads the build-up and loss of mass on a sensor chip optically.

Where [4] appears, read: washed human platelet suspension.

Text for Bcl-xL: 1.9 Surface Plasmon Resonance (SPR)
The present method utilizes a Surface plasmon resonance (SPR)-based biosensor (BiacoreTM, GE Healthcare,
Uppsala, Sweden) to characterize Bcl-xL peptide interaction partners.
The SPR assay is configured to examine direct binding of peptide s to Bcl-xL derivatized sensor surfaces and
generate relative affinity values (KDapp) to provide relative ranking data for the series of peptides under
BiacoreTM T200 (GE Healthcare, Uppsala, Sweden) was used to conduct all experiments reported herein. Sensor
surface preparation and all interaction analyses experiments were performed at 25 °C utilizing a data collection
rate of 10 Hz. Reagents were purchased from GE Healthcare. Running buffer containing 10 mM Hepes, pH 7.4,
150 mM sodium chloride, 1 mM dithiothreitol, 1% DMSO and 0.05% polysorbate 20 were utilized throughout
surface preparation and all interaction analysis experiments.
Histidine tagged Bcl-xL protein was diluted to 5 μg/mL and captured onto Sensor chip NTA via the following
sequence of injections to achieve a target Bcl-xL surface density of 700 R.U. (response units). The carboxymethyl
dextran surface of Sensor chip NTA was activated by injection of an aqueous solution containing 50 mM N-hydroxy
succinimide (NHS) and 200 mM N-ethyl-N’-(dimethylaminopropyl) carbodiimide (EDC). 500 μM nickel sulfate (NiSO4)
was subsequently injected for one minute and utilized to capture Bcl-xL from a 5 μg/mL solution injected for one
minute. A further one-minute injection of 1M ethanolamine, pH 8.5 was performed to deactivate any unreacted
carboxymethylesters.3 The flow-rate for all injections during surface derivatization was 10 µl/min.

In the case of `CC(C)C[C@@H]1NC(=O)[C@H](CC(C)C)NC(=O)[C@H](CCCNC(=N)N)NC(=O)[C@H](Cc2c[nH]c3ccccc23)NC(=O)[C@H](CC(C)C)NC(=O)[C@H](CC(=O)O)NC(=O)[C@@H](NC(=O)[C@H](Cc2ccccc2)NC(=O)[C@@H](NC(=O)[C@H](CCC(=O)O)NC(=O)CCCCCNC(=O)c2ccc3c(c2)C(=O)OC32c3ccc(N(C)C)cc3Oc3cc(N(C)C)ccc32)[C@@H](C)O)CCCn2cc(nn2)-c2cc(C(=O)N[C@@H](CCCNC(=N)N)C(=O)N[C@@H](CCCNC(=N)N)C(=O)N[C@@H](CCCNC(=N)N)C(N)=O)cc(c2)-c2cn(nn2)CCC[C@@H](C(=O)N[C@@H](CCC(=O)O)C(=O)N[C@@H](CC(N)=O)C(N)=O)NC1=O` [compound 5], the “positive platelets (TAMRA fluorescence), peptide uptake” value with human platelets [1] (setting [4]) was 87.0 ± 7.3%. Moreover, in the data set on human platelets [1] (washed human platelet suspension, TAMRA-labelled model peptide 10 μM, 37 °C, first 15 minutes of incubation, flow cytometry (Fig. SI_1)), the “fluorescent platelets, peptide uptake” value was 40–50%. For the same molecule, in the data set with human platelets [1] (washed human platelets, TAMRA-labelled peptide, continuous flow cytometry during first 5 minutes of treatment (Fig. 3B)), the “change in platelet-associated fluorescence in real time” value is given as “rapid increase in platelet fluorescence”.
Consider `CC(C)C[C@@H]1NC(=O)[C@H](CC(C)C)NC(=O)[C@H](CCCNC(=N)N)NC(=O)[C@H](Cc2c[nH]c3ccccc23)NC(=O)[C@H](CC(C)C)NC(=O)[C@H](CC(=O)O)NC(=O)[C@@H](NC(=O)[C@H](Cc2ccccc2)NC(=O)[C@@H](NC(=O)[C@H](CCC(=O)O)NC(=O)CCCCCNC(=O)c2ccc3c(c2)C(=O)OC32c3ccc(N(C)C)cc3Oc3cc(N(C)C)ccc32)[C@@H](C)O)CCCn2cc(nn2)-c2cc(C(=O)N[C@@H](CCCNC(=N)N)C(=O)N[C@@H](CCCNC(=N)N)C(N)=O)cc(c2)-c2cn(nn2)CCC[C@@H](C(=O)N[C@@H](CCC(=O)O)C(=O)N[C@@H](CC(N)=O)C(N)=O)NC1=O` [compound 4], for which the “positive platelets (TAMRA fluorescence), peptide uptake” value in the data set with human platelets [1] (setting [4]) is given as 73.0 ± 13.3%.
As to `CC[C@H](C)[C@H](NC(C)=O)C(=O)N[C@@H](Cc1c[nH]c2ccccc12)C(=O)N[C@H](C(=O)N[C@@H](C)C(=O)N[C@@H](CCC(N)=O)C(=O)N[C@@H](CCC(=O)O)C(=O)N[C@@H](CC(C)C)C(=O)N[C@@H](CC(=O)O)C(=O)N[C@H]1CCCn2cc(nn2)-c2cc(C(=O)N[C@@H](CCCNC(=N)N)C(=O)N[C@@H](CCCNC(=N)N)C(=O)N[C@@H](CCCNC(=N)N)C(N)=O)cc(c2)-c2cn(nn2)CCC[C@@H](C(=O)N[C@@H](Cc2ccccc2)C(=O)N[C@@H](CC(N)=O)C(=O)N[C@@H](C)C(=O)N[C@@H](Cc2ccc(O)cc2)C(=O)N[C@@H](Cc2ccc(O)cc2)C(=O)N[C@@H](C)C(=O)N[C@@H](CCCNC(=N)N)C(=O)N[C@@H](CCCNC(=N)N)C(N)=O)NC(=O)[C@H](CC(=O)O)NC(=O)CNC(=O)[C@H]([C@@H](C)CC)NC1=O)[C@@H](C)CC` [peptide 21], the “PS exposure / annexin-V binding (in words)” value in the data set with human platelets [2] is “did not result in PS exposure”. The “platelet activation markers PAC-1, CD62P, CD63 (in words)” value with human platelets [3] was “nonspecific activation was not observed”. Moreover, the “Rel. Kdapp” value at Bcl-xL is “No binding”.
As for `CN(C)CC[C@H](CSc1ccccc1)Nc1ccc(S(=O)(=O)NC(=O)c2ccc(N3CCN(Cc4ccccc4-c4ccc(Cl)cc4)CC3)cc2)cc1[N+](=O)[O-]` [ABT737], the “PAC1-positive platelets (integrin αIIbβ3 activation)” value with human platelets [3] (washed human platelets in CFT buffer pH 7.4, 10 μM, 37 °C, after 1 hour, flow cytometry, mean ± SEM) is reported as “ineffective”. Further, the “platelet activation markers PAC-1, CD62P, CD63 (in words)” value in the data set with human platelets [3] is “no increase in any activation marker”.
